Laboratory results taken from the supplement of paper PMC11061612.

How the values were obtained:
Assay in all cases: combination Emax (second highest fraction inhibited in the dose matrix, 72 h); higher = more inhibition; extreme values may be limits of the assay
[1] = tested on: A375 (Melanoma)
In short: (§1)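 After 24 hours at 37°C and 5% CO2 in 1536-well plates, cells in DMEM/F12 or RPMI plus 10% FBS received two-drug dose matrices for 72 hours. Viability came from CellTiter-Glo 2.0 luminescence and was scaled as inhibition, anchored at 0 by vehicle wells and at 1 by blank wells. Combination Emax is taken as the second-highest inhibition in the matrix, and Bliss excess as the observed combination effect less EA + EB − EA·EB, with EA and EB the single-agent effects.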

[2] = tested on: BT-474 (Breast Carcinoma)
In short: as §1

[3] = tested on: CAL-85-1 (Breast Carcinoma)
In short: as §1

[4] = tested on: COR-L105 (Lung Adenocarcinoma)
In short: as §1

[5] = tested on: GRANTA-519 (B-Cell Non-Hodgkin's Lymphoma)
In short: as §1

[6] = tested on: HT-1197 (Bladder Carcinoma)
In short: as §1

[7] = tested on: HT-144 (Melanoma)
In short: as §1

[8] = tested on: KNS-62 (Squamous Cell Lung Carcinoma)
In short: as §1

[9] = tested on: MG-63 (Osteosarcoma)
In short: as §1

[10] = tested on: NCI-H1648 (Lung Adenocarcinoma)
In short: as §1

[11] = tested on: NCI-H2170 (Squamous Cell Lung Carcinoma)
In short: as §1

[12] = tested on: NCI-H2452 (Mesothelioma)
In short: as §1

[13] = tested on: OVKATE (Ovarian Carcinoma)
In short: as §1

[14] = tested on: SBC-3 (Small Cell Lung Carcinoma)
In short: as §1

[15] = tested on: SBC-5 (Small Cell Lung Carcinoma)
In short: as §1

[16] = tested on: SCC90 (Head and Neck Carcinoma)
In short: as §1

[17] = tested on: SK-N-DZ (Neuroblastoma)
In short: as §1

[18] = tested on: SNU-1 (Gastric Carcinoma)
In short: as §1

[19] = tested on: SUP-HD1 (Hodgkin's Lymphoma)
In short: as §1

[20] = tested on: SW1463 (Colorectal Carcinoma)
In short: as §1

Compound | combination Emax [1] | combination Emax [2] | combination Emax [3] | combination Emax [4] | combination Emax [5] | combination Emax [6] | combination Emax [7] | combination Emax [8] | combination Emax [9] | combination Emax [10] | combination Emax [11] | combination Emax [12] | combination Emax [13] | combination Emax [14] | combination Emax [15] | combination Emax [16] | combination Emax [17] | combination Emax [18] | combination Emax [19] | combination Emax [20]
CN(CCO)CC[C@H](CSc1ccccc1)Nc1ccc(S(=O)(=O)NC(=O)c2ccc(N3CCC([C@@H](O)c4ccccc4-c4ccc(Cl)cc4)CC3)cc2)cc1S(=O)(=O)C(F)(F)F [AZD4320] + CN(C)CCCOc1ccc(-c2ccc3ncc4c(c3c2)n(C2CCOCC2)c(=O)n4C)cn1 [AZD0156] (first compound max 1 µM, 7x7, partner max 1 µM) | 0.129 | 0.211 | 0.29 | 0.261 | 0.934 | 0.142 | 0.219 | 0.125 | 0.136 | 0.55 | 0.613 | 0.246 | 0.29 | 0.163 | 0.102 | 0.496 | 0.697 | 0.397 | 0.961 | 0.233
COc1cccc(OCCCN)c1-c1cc(Nc2cnc(C#N)cn2)n[nH]1 [Prexasertib] + C[C@@H]1COCCN1C2=NC(=NC(=C2)C3(CC3)[S@](=N)(=O)C)C4=C5C=CNC5=NC=C4 [AZD6738] (first compound max 1 µM, 7x7, partner max 10 µM) | 0.853 | 0.133 | 0.477 | 0.473 | 0.856 | 0.603 | 0.853 | 0.555 | 0.866 | 0.847 | 0.847 | 0.672 | 0.337 | 0.762 | 0.938 | 0.679 | 1 | 0.888 | 0.903 | 0.704
NC1(C(=O)N[C@@H](CCO)c2ccc(Cl)cc2)CCN(c2ncnc3[nH]ccc23)CC1 [Capivasertib] + C[C@@H]1COCCN1C2=NC(=NC(=C2)C3(CC3)[S@](=N)(=O)C)C4=C5C=CNC5=NC=C4 [AZD6738] (first compound max 10 µM, 7x7, partner max 10 µM) | 0.723 | 0.406 | 0.47 | 0.501 | 0.892 | 0.491 | 0.88 | 0.738 | 0.855 | 0.746 | 0.809 | 0.72 | 0.265 | 0.69 | 0.7 | 0.804 | 0.983 | 0.718 | 0.762 | 0.42
COc1nnc2ccc(N3CCC(c4ccc(OCCN5CCN(C)C(=O)[C@H]5C)cc4)CC3)nn12 [AZD5153] + CC1(C)CCC(CN2CCN(c3ccc(C(=O)NS(=O)(=O)c4ccc(NCC5CCOCC5)c([N+](=O)[O-])c4)c(Oc4cnc5[nH]ccc5c4)c3)CC2)=C(c2ccc(Cl)cc2)C1 [Venetoclax] (first compound max 1 µM, 7x7, partner max 1 µM) | 0.44 | 0.353 | 0.674 | 0.507 | 0.69 | 0.656 | 0.417 | 0.519 | 0.646 | 0.68 | 0.484 | 0.411 | 0.35 | 0.721 | 0.518 | 0.533 | 0.694 | 0.645 | 0.955 | 0.581
CC1(C)CCC(CN2CCN(c3ccc(C(=O)NS(=O)(=O)c4ccc(NCC5CCOCC5)c([N+](=O)[O-])c4)c(Oc4cnc5[nH]ccc5c4)c3)CC2)=C(c2ccc(Cl)cc2)C1 [Venetoclax] + C=CCn1c(=O)c2cnc(Nc3ccc(N4CCN(C)CC4)cc3)nc2n1-c1cccc(C(C)(C)O)n1 [AZD1775] (first compound max 1 µM, partner max 1 µM) | 0.505 | 0.516 | 0.473 | 0.372 | 1 | 0.487 | 0.509 | 0.544 | 0.626 | 0.595 | 0.652 | 0.739 | 0.381 | 0.899 | 0.459 | 0.838 | 0.999 | 0.769 | 0.921 | 0.36
COc1cccc(OCCCN)c1-c1cc(Nc2cnc(C#N)cn2)n[nH]1 [Prexasertib] + O=C(c1cc(Cc2n[nH]c(=O)c3ccccc23)ccc1F)N1CCN(C(=O)C2CC2)CC1 [Olaparib] (first compound max 1 µM, 7x7, partner max 10 µM) | 0.815 | 0.24 | 0.548 | 0.401 | 0.865 | 0.478 | 0.712 | 0.576 | 0.822 | 0.802 | 0.787 | 0.735 | 0.371 | 0.744 | 0.914 | 0.679 | 0.97 | 0.777 | 0.802 | 0.601
CC(=O)c1c(C)c2cnc(Nc3ccc(N4CCNCC4)cn3)nc2n(C2CCCC2)c1=O [Palbociclib] + Cn1cnc2c(F)c(Nc3ccc(Br)cc3Cl)c(C(=O)NOCCO)cc21 [Selumetinib] (first compound max 10 µM, 7x7, partner max 10 µM) | 0.705 | 0.0817 | 0.387 | 0.403 | 0.367 | 0.245 | 0.896 | 0.552 | 0.431 | 0.543 | 0.3 | 0.331 | 0.219 | 0.744 | 0.251 | 0.726 | 0.61 | 0.491 | 0.445 | 0.646
C=CCn1c(=O)c2cnc(Nc3ccc(N4CCN(C)CC4)cc3)nc2n1-c1cccc(C(C)(C)O)n1 [AZD1775] + O=C(c1cc(Cc2n[nH]c(=O)c3ccccc23)ccc1F)N1CCN(C(=O)C2CC2)CC1 [Olaparib] (first compound max 1 µM, partner max 10 µM) | 0.476 | 0.237 | 0.394 | 0.436 | 0.804 | 0.468 | 0.606 | 0.225 | 0.548 | 0.702 | 0.58 | 0.574 | 0.311 | 0.621 | 0.507 | 0.822 | 0.935 | 0.569 | 0.871 | 0.521
CC1(C)CCC(CN2CCN(c3ccc(C(=O)NS(=O)(=O)c4ccc(NCC5CCOCC5)c([N+](=O)[O-])c4)c(Oc4cnc5[nH]ccc5c4)c3)CC2)=C(c2ccc(Cl)cc2)C1 [Venetoclax] + C[C@@H](Nc1cc(F)cc(F)c1)c1cc(C(=O)N(C)C)cc2c(=O)cc(N3CCOCC3)oc12 [AZD8186] (first compound max 1 µM, 7x7, partner max 3 µM) | 0.109 | 0.163 | 0.146 | 0.24 | 0.437 | 0.126 | 0.159 | 0.133 | 0.143 | 0.454 | 0.166 | 0.268 | 0.262 | 0.507 | 0.163 | 0.29 | 0.256 | 0.154 | 0.839 | 0.152
Cc1c2c(nn1C)CSCc1cc(n(C)n1)CSc1cc(c3ccccc3c1)OCCCc1c(C(=O)O)n(C)c3c-2c(Cl)ccc13 [AZD5991] + Cn1cnc2c(F)c(Nc3ccc(Br)cc3Cl)c(C(=O)NOCCO)cc21 [Selumetinib] (first compound max 1 µM, 7x7, partner max 3 µM) | 0.895 | 0.246 | 0.584 | 0.463 | 0.106 | 0.321 | 1 | 0.339 | 0.251 | 0.844 | 0.184 | 0.32 | 0.265 | 0.225 | 0.415 | 0.99 | 0.252 | 0.605 | 0.593 | 0.547
CS(=O)(=O)CCNCc1ccc(-c2ccc3ncnc(Nc4ccc(OCc5cccc(F)c5)c(Cl)c4)c3c2)o1 [Lapatinib] + C[C@@H](Oc1cc(-c2cnn(C3CCNCC3)c2)cnc1N)c1c(Cl)ccc(F)c1Cl [Crizotinib] (first compound max 10 µM, 7x7, partner max 10 µM) | 0.86 | 0.905 | 0.944 | 0.815 | 0.751 | 0.536 | 0.998 | 0.856 | 0.936 | 0.971 | 0.998 | 0.804 | 0.391 | 0.971 | 0.832 | 0.946 | 0.899 | 0.857 | 0.895 | 0.802
COc1nnc2ccc(N3CCC(c4ccc(OCCN5CCN(C)C(=O)[C@H]5C)cc4)CC3)nn12 [AZD5153] + Cn1cnc2c(F)c(Nc3ccc(Br)cc3Cl)c(C(=O)NOCCO)cc21 [Selumetinib] (first compound max 1 µM, 7x7, partner max 10 µM) | 0.868 | 0.385 | 0.687 | 0.621 | 0.206 | 0.806 | 0.864 | 0.647 | 0.689 | 0.88 | 0.405 | 0.446 | 0.26 | 0.699 | 0.662 | 0.916 | 0.703 | 0.71 | 0.752 | 0.732
